A short description of data set [1]: Compound stability in human liver microsomes. The format is in vitro ADME. As to conditions: for half-life at 5 μM: human liver microsomes 0.5 mg protein/mL, compound 5 μM, NADPH 1.0 mM, 37° C.; for CLint scaled at 5 μM: human liver microsomes, in vivo CLint extrapolated.
A short description of data set [2]: Compound stability in rat liver microsomes. Format: in vitro ADME. As to conditions: pH 7.4; for half-life at 5 μM: rat liver microsomes 0.5 mg protein/mL, compound 5 μM, NADPH 1.0 mM, 37° C.; for CLint scaled at 5 μM: rat liver microsomes, in vivo CLint extrapolated.
Data set [3] in a line: Pharmacokinetics after intravenous and oral administration in rats. As to conditions: for clearance (CL) / AUC(0-t) / half-life / Vd: iv dosing, dose 1 mg/kg; for bioavailability / AUC(0-t) / half-life / Vd: rat, plasma; for bioavailability: iv dose 1 mg/kg, oral dose generally 5 or 10 mg/kg; for Vd: read-out: Vss. The format is in vivo, rat.
A short description of data set [4]: Pharmacokinetics after intravenous and oral administration in mice. Format: in vivo. As to conditions: Mouse; for CL/F / AUC(0-t) / half-life / Vd: iv dosing, dose 1 mg/kg; for bioavailability / AUC(0-t) / half-life / Vd: plasma; for bioavailability: iv dose 1 mg/kg, oral dose generally 5 or 10 mg/kg; for Vd: read-out: Vss.
A short description of data set [5]: Pharmacokinetics after intravenous and oral administration in dogs. As to conditions: Dog; for CL/F / AUC(0-t) / half-life / Vd: iv dosing, dose 1 mg/kg; for bioavailability / AUC(0-t) / half-life / Vd: plasma; for bioavailability: iv dose 1 mg/kg, oral dose generally 10 mg/kg; for Vd: read-out: Vss. The format is in vivo.
Data set [6] is described as follows: Pharmacokinetics after intravenous and oral administration in monkeys. As to conditions: Monkey; for CL/F / AUC(0-t) / half-life / Vd: iv dosing, dose 1 mg/kg; for bioavailability / AUC(0-t) / half-life / Vd: plasma; for bioavailability: iv dose 1 mg/kg, oral dose generally 10 mg/kg; for Vd: read-out: Vss. The format is in vivo.
The target in a further data set is PI3K (p110α/p85α) (h) (Homo sapiens (Human), UniProt P42336). Kind of data set: PI3K (p110α/p85α) (h) non-radioactive HTRF kinase assay. The format is biochemical.
PI3K (p110α/p85α) (h), sequence (P42336 whole entry): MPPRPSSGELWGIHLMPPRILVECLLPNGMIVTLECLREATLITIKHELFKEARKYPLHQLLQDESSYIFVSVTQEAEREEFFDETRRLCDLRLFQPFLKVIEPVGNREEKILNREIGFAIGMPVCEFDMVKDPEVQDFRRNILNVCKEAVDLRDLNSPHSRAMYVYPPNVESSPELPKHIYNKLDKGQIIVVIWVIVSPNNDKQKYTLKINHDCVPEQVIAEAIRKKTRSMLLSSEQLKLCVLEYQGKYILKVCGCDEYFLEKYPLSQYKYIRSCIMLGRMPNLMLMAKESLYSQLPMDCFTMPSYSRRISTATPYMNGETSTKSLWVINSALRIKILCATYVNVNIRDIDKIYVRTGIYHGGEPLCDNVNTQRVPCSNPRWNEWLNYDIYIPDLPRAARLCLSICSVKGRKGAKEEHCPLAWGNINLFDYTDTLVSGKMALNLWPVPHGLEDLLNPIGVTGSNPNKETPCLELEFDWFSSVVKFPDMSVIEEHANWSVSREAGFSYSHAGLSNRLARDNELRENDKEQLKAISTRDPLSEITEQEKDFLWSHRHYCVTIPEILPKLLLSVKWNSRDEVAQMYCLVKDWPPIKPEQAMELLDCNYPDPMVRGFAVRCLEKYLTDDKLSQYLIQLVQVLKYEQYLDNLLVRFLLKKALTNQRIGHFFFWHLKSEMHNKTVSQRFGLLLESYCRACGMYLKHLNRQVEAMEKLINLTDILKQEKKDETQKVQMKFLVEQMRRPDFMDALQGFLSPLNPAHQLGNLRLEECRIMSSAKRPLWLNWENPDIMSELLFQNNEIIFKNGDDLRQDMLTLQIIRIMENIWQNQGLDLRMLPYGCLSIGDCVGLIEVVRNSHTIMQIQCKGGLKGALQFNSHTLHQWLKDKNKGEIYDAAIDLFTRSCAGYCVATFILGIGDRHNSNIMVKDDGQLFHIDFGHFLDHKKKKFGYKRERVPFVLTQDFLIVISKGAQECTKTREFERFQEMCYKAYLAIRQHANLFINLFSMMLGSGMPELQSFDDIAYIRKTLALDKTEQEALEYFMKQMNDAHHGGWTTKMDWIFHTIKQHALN
PI3K (p110α/p85α) (h), sequence (P27986 whole entry partner): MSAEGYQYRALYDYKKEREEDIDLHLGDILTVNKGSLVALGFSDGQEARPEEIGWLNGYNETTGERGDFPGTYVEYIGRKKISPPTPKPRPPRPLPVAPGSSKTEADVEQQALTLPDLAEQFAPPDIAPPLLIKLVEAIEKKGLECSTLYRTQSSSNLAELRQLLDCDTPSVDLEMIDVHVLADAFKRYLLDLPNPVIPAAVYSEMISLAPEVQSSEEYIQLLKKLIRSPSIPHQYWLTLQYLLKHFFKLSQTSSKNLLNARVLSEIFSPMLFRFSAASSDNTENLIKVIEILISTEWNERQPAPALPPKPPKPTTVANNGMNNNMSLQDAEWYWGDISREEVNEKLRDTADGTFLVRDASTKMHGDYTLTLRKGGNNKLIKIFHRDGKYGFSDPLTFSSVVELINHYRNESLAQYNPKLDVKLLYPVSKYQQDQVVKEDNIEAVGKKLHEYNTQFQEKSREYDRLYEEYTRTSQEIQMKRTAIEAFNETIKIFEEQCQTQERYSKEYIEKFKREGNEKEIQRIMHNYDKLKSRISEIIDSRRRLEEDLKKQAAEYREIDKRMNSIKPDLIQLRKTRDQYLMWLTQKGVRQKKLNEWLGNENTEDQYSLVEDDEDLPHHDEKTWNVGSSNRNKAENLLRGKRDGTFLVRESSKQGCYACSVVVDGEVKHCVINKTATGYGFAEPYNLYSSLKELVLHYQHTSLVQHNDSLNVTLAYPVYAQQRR
The target of a further data set is PI3K (p110β/p85α) (h) (Homo sapiens (Human), UniProt P42338). The experiment in a line: PI3K (p110β/p85α) (h) non-radioactive HTRF kinase assay. The format is biochemical.
PI3K (p110β/p85α) (h), sequence (P42338 whole entry): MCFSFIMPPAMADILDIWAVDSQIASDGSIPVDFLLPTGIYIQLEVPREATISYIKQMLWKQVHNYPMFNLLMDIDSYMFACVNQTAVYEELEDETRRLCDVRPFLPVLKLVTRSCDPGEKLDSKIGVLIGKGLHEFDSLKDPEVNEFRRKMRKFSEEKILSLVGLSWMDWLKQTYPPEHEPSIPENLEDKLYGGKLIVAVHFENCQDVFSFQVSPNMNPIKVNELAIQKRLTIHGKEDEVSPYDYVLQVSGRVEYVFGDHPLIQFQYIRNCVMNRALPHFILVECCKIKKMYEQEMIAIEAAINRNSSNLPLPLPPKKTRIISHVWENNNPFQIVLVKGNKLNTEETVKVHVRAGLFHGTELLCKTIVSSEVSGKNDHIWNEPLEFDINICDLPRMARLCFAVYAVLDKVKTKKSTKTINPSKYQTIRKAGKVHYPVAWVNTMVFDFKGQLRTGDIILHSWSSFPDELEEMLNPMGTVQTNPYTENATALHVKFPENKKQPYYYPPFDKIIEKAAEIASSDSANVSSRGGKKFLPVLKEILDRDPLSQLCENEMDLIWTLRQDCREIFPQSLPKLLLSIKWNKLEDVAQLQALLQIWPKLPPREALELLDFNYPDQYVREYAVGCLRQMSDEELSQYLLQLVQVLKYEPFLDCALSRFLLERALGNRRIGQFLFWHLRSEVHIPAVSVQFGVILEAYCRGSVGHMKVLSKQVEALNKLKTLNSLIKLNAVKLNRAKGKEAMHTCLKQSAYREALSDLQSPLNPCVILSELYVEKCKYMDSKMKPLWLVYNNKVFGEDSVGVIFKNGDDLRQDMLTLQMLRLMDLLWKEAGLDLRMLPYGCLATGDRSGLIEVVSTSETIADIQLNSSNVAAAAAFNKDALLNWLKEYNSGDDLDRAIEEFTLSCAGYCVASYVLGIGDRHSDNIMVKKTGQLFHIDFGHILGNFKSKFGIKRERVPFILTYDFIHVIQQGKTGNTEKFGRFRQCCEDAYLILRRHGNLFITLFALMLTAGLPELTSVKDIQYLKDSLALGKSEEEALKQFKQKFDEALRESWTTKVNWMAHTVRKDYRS
PI3K (p110β/p85α) (h), sequence (P27986 whole entry partner): as the sequence (P27986 whole entry partner) above
The target of another data set is PI3K (p110δ/p85α) (h) (Homo sapiens (Human), UniProt O00329). Kind of data set: PI3K (p110δ/p85α) (h) non-radioactive HTRF kinase assay. Format: biochemical.
PI3K (p110δ/p85α) (h), sequence (O00329 whole entry): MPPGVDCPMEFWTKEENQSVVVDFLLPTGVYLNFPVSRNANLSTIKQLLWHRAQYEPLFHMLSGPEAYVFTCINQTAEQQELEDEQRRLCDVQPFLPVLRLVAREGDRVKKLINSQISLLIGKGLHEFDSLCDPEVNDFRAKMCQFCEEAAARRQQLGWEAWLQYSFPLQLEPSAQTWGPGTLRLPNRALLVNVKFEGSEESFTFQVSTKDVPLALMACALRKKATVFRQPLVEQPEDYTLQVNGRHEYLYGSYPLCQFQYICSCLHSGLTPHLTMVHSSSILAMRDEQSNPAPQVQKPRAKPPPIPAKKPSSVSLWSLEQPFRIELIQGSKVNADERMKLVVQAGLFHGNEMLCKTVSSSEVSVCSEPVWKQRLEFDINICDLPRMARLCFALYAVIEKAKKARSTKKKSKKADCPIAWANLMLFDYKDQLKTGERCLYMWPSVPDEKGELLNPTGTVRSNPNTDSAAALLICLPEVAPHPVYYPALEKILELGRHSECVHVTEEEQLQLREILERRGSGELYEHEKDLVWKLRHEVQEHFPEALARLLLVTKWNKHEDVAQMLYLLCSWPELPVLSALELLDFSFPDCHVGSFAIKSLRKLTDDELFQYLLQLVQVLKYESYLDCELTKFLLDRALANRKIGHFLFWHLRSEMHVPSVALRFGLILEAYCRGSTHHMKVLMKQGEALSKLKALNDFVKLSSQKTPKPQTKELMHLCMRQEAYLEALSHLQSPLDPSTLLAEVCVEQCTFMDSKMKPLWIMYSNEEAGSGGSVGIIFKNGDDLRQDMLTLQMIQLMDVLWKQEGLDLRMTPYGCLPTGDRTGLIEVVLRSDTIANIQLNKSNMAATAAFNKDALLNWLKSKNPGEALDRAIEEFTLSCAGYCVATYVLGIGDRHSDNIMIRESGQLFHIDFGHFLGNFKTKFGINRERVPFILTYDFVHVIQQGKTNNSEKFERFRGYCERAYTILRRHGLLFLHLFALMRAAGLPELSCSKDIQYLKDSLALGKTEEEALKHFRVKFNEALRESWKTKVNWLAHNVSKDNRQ
PI3K (p110δ/p85α) (h), sequence (P27986 whole entry partner): as the sequence (P27986 whole entry partner) above
In a further data set the target is PI3K (p120γ) (h) (Homo sapiens (Human), UniProt P48736). The experiment in a line: PI3K (p120γ) (h) non-radioactive HTRF kinase assay. The format is biochemical.
PI3K (p120γ) (h), sequence (P48736 whole entry): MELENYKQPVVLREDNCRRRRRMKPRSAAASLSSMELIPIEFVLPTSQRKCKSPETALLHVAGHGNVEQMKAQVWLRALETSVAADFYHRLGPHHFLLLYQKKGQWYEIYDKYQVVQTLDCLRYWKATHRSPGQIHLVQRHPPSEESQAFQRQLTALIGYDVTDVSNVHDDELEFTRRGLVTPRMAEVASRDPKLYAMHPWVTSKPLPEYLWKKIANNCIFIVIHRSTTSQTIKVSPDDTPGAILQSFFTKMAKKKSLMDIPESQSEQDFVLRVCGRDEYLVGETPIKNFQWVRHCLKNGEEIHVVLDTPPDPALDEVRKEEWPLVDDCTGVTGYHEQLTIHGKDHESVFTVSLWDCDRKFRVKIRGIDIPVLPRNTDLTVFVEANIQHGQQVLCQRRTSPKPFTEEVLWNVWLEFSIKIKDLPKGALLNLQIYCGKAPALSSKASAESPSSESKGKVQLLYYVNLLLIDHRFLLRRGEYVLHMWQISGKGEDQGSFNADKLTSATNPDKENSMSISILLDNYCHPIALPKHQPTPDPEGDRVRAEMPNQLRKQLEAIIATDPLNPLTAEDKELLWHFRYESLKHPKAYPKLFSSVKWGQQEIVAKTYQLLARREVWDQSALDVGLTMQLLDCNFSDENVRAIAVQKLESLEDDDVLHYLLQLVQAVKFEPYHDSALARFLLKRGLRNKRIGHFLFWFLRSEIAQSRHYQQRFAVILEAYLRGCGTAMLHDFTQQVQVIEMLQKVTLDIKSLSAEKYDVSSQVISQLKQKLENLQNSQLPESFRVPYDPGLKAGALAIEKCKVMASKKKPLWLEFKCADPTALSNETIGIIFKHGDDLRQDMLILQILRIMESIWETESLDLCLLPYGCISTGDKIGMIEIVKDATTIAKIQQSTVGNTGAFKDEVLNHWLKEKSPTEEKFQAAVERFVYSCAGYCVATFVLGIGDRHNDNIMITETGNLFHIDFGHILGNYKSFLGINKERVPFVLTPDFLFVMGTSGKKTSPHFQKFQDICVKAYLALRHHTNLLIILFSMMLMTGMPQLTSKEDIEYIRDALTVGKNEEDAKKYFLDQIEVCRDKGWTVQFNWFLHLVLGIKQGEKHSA
Another data set concerns the target PI3Kδ (Homo sapiens, UniProt O00329). As to conditions: Cell, 2006, 125, 733-747; cited from earlier work.
The subject of another data set is murine model of asthma. As to conditions: ovalbumin-induced airway inflammation; FASEB, 2006, 20: 455-465; cited from earlier work.
The subject of data set [7] is mouse model of rheumatoid arthritis. As to conditions: Nature Medicine, 2005, 11, 936-943; cited from earlier work.
The test system of data set [8] is model of systemic lupus erythematosis. As to conditions: Nature Medicine, 2005, 11, 933-935; cited from earlier work.

Results on 8 compounds are retold here after US9670194B2 (Calitor Sciences, LLC, priority 2013, dated 2017).

`Cc1nnc(-c2c(N)ncnc2N[C@@H](C)c2nc3cccc(Cl)c3c(=O)n2-c2ccccc2)o1` [Ex. 64, (S)-2-(1-((6-amino-5-(5-methyl-1,3,4-oxadiazol-2-yl)pyrimidin-4-yl)amino)ethyl)-5-chloro-3-phenylquinazolin-4(3H)-one]: the half-life at 5 μM in data set [1] stood at 55.8 min; in data set [2], 49.6 min. In addition, the CLint scaled at 5 μM in data set [1] was 31.1 mL/min/kg; in [2] it was 50.1 mL/min/kg. For the same compound, in data set [3], the “clearance (CL)” value is 28.3 mL/min/kg. For the same compound, the bioavailability in [3] stood at 111%; in data set [4], 78.7%; in data set [5], 76.3%; in data set [6] it was 134%. For the same compound, the AUC(0-t) in [3] amounted to 596 ng·h/mL; in data set [4], 883 ng·h/mL; in [5], 10000 ng·h/mL; in data set [6], 2340 ng·h/mL. Further, the half-life in data set [3] is 46.6 min; in [4] it was 33.6 min; in data set [5] it was 218 min; in data set [6], 209 min. Moreover, the Vd is 1.69 L/kg in data set [3], 0.41 L/kg in data set [4], 0.48 L/kg in data set [5] and 1.4 L/kg in data set [6]. Moreover, the results for the CL/F in data set [4], in data set [5] and in data set [6] were 18.8 mL/min/kg, 1.83 mL/min/kg and 7.17 mL/min/kg, respectively. For the same compound, the 50% inhibitory concentration (IC50) at PI3K (p110α/p85α) (h) was greater than 3000 nM; on PI3K (p110β/p85α) (h), 674 nM; on PI3K (p110δ/p85α) (h), 8 nM; at PI3K (p120γ) (h), 112 nM.
In the case of `CC[C@H](Nc1ncnc(N)c1-c1nc(C)no1)c1nc2cccc(F)c2c(=O)n1-c1ccccc1` [Ex. 39, (S)-2-(1-((6-amino-5-(3-methyl-1,2,4-oxadiazol-5-yl)pyrimidin-4-yl)amino)-propyl)-5-fluoro-3-phenylquinazolin-4(3H)-one], in data set [1], the half-life at 5 μM was 69.3 min and the CLint scaled at 5 μM was 25.1 mL/min/kg. For the same compound, in data set [2], the half-life at 5 μM worked out at 15.6 min and the intrinsic clearance (CLint scaled) at 5 μM was 159 mL/min/kg. In [3], the “clearance (CL)” value worked out at 51.8 mL/min/kg, the bioavailability came out at 75.5%, the area under the curve AUC(0-t) was 323 ng·h/mL and the half-life was 57 min. Further, the Vd in data set [3] came to 4.09 L/kg. Besides, at PI3K (p110α/p85α) (h), the concentration for half-maximal inhibition (IC50) was 2750 nM. Moreover, the IC50 on PI3K (p110β/p85α) (h) stood at 502 nM. Moreover, at PI3K (p110δ/p85α) (h), the IC50 came out at 11 nM. In addition, on PI3K (p120γ) (h), the IC50 was determined as 893 nM.
`CC[C@H](Nc1ncnc(N)c1-c1nc(C)no1)c1nc2cccc(Cl)c2c(=O)n1-c1ccccc1` [Ex. 3, (S)-2-(1-((6-amino-5-(3-methyl-1,2,4-oxadiazol-5-yl)pyrimidin-4-yl)amino)-propyl)5-chloro-3-phenylquinazolin-4(3H)-one]: in [1], the half-life at 5 μM was 36.7 min and the CLint scaled at 5 μM was 47.4 mL/min/kg. Also, in data set [2], the half-life at 5 μM was found to be 31 min and the CLint scaled at 5 μM was 80.2 mL/min/kg. In data set [3], the “clearance (CL)” value amounted to 70.8 mL/min/kg, the bioavailability came out at 64.5%, the exposure AUC(0-t) amounted to 237 ng·h/mL and the half-life was 71.4 min. Besides, the Vd in data set [3] was found to be 6.23 L/kg. Besides, the IC50 at PI3K (p110α/p85α) (h) is 442 nM. In addition, the IC50 on PI3K (p110β/p85α) (h) stood at 142 nM. Besides, at PI3K (p110δ/p85α) (h), the IC50 was determined as 2 nM. For the same compound, at PI3K (p120γ) (h), the IC50 turned out to be 66 nM.
Regarding `CC[C@H](Nc1ncnc(N)c1-c1nc(C)no1)c1nc2cccc(Cl)c2c(=O)n1C1CC1` [Ex. 4, (S)-2-(1-((6-amino-5-(3-methyl-1,2,4-oxadiazol-5-yl)pyrimidin-4-yl)amino)-propyl)-5-chloro-3-cyclopropylquinazolin-4(3H)-one], the half-life at 5 μM in data set [1] is 45.5 min; in data set [2] it was 81.1 min. The CLint scaled at 5 μM in data set [1] was 38.2 mL/min/kg; in [2], 30.6 mL/min/kg. Moreover, in data set [3], the “clearance (CL)” value was found to be 21.5 mL/min/kg. For the same compound, the bioavailability in data set [3] worked out at 76.1%; in data set [4], 11%; in data set [5], 34.1%; in data set [6], 55.4%. For the same compound, the AUC(0-t) in [3] is 726 ng·h/mL; in [4], 651 ng·h/mL; in data set [5], 1580 ng·h/mL; in data set [6] it was 1520 ng·h/mL. Also, the half-life in [3] is 359 min; in [4] it was 88.8 min; in data set [5] it was 684 min; in data set [6], 185 min. For the same compound, the Vd amounted to 10.7 L/kg in [3], 3.8 L/kg in data set [4], 6.01 L/kg in data set [5] and 1.92 L/kg in data set [6]. In addition, the CL/F in data set [4] worked out at 255 mL/min/kg; in data set [5], 9.67 mL/min/kg; in data set [6], 11.6 mL/min/kg. Moreover, the IC50 at PI3K (p110α/p85α) (h) is 1480 nM; on PI3K (p110β/p85α) (h) it was 113 nM; on PI3K (p110δ/p85α) (h), 8 nM; at PI3K (p120γ) (h), 258 nM.
As for `Cc1ccccc1-n1c(Cn2cnc3c(N)ncnc32)nc2cccc(C)c2c1=O` [IC87114], the “inhibits PI3Kδ” value at PI3Kδ is on record as “high nanomolar range (triple digit)”. In addition, the “inflammation and disease in a murine model of asthma” value in the data set on murine model of asthma is “significantly ameliorate inflammation and disease”.
With `Cc1noc(-c2c(N)ncnc2N[C@@H](C)c2nc3cccc(Cl)c3c(=O)n2C2CC2)n1` [Ex. 41, (S)-2-(1-((6-amino-5-(3-methyl-1,2,4-oxadiazol-5-yl)pyrimidin-4-yl)amino)-ethyl)-5-chloro-3-cyclopropylquinazolin-4(3H)-one], in data set [1], the half-life at 5 μM came to 41 min and the CLint scaled at 5 μM was 42.4 mL/min/kg. In data set [2], the half-life at 5 μM was determined as 22.4 min and the CLint scaled at 5 μM was 111 mL/min/kg. In [3], the “clearance (CL)” value is 84.3 mL/min/kg, the bioavailability turned out to be 46.5%, the AUC(0-t) worked out at 200 ng·h/mL and the half-life is 65.4 min. The Vd in data set [3] is 6.68 L/kg. Besides, the IC50 on PI3K (p110α/p85α) (h) is 1200 nM. The IC50 at PI3K (p110β/p85α) (h) was found to be 35 nM. On PI3K (p110δ/p85α) (h), the IC50 stood at 5 nM. Moreover, the IC50 at PI3K (p120γ) (h) was determined as 261 nM.
Consider `O=C1NC(=O)/C(=C\c2ccc3nccnc3c2)S1` [AS 605240], for which, in data set [7], the “efficacy in a mouse model of rheumatoid arthritis” value was “efficacious”. The “onset of disease in a model of systemic lupus erythematosis” value in data set [8] was “delay onset of disease”.
For `Cc1noc(-c2c(N)ncnc2N[C@@H](C)c2nc3cccc(Cl)c3c(=O)n2-c2ccccc2)n1` [Ex. 65, (S)-2-(1-((6-amino-5-(3-methyl-1,2,4-oxadiazol-5-yl)pyrimidin-4-yl)amino)ethyl)-5-chloro-3-phenylquinazolin-4(3H)-one], the figures for the half-life at 5 μM in [1] and in [2] were 33.1 min and 32.6 min, respectively. The CLint scaled at 5 μM in data set [1] was 52.5 mL/min/kg; in data set [2], 76.1 mL/min/kg. For the same compound, the “clearance (CL)” value in [3] was 129 mL/min/kg. Further, the bioavailability turned out to be 88.7% in [3], 33.3% in data set [4], 24.8% in data set [5] and 10% in data set [6]. The AUC(0-t) worked out at 260 ng·h/mL in [3], 527 ng·h/mL in data set [4], 2690 ng·h/mL in data set [5] and 1060 ng·h/mL in [6]. Further, the half-life in data set [3] is 54.2 min; in data set [4] it was 47.4 min; in [5] it was 636 min; in data set [6], 403 min. The Vd in data set [3] turned out to be 9.09 L/kg; in [4], 0.84 L/kg; in data set [5], 4.25 L/kg; in [6], 4.2 L/kg. The CL/F in [4] worked out at 31.7 mL/min/kg; in data set [5], 6.17 mL/min/kg; in [6], 15.3 mL/min/kg. For the same compound, the IC50 amounted to 1010 nM on PI3K (p110α/p85α) (h), 154 nM on PI3K (p110β/p85α) (h), 2 nM on PI3K (p110δ/p85α) (h) and 37 nM on PI3K (p120γ) (h).
